Km and stoichiometry N data for two compounds are collected here from publication PMC9197883, “Treatment with Polyethylene Glycol–Conjugated Fungal D-Amino Acid Oxidase Reduces Lung Inflammation in a Mouse Model of Chronic Granulomatous Disease” (Inflammation, 2022).

In one experiment the test system is T1, fDAO / PEG-fDAO.
T1 construct: gene DAO; DAO from Fusarium spp. supplied by Ikeda Food Research; tetramer 165 kDa; PEG conjugate (five PEG chains, succinimide-PEG ME-020CS) 206 kDa
Briefly: HRP-coupled o-dianisidine assay of H2O2 formation, nonlinear fit. The experiment is classed as biochemical. The following applies: pH 6.5; 25 °C; enzyme form not stated beside the value, most likely PEG-conjugated (PEG-fDAO).

Experiment [1] concerns the target D-amino acid oxidase isolated from Fusarium spp. (Fusarium spp.) (UniProt P24552). Briefly: not stated; fDAO in 'the physiological solution used for testing'; how the oligomeric state was found is not told.

On to `N[C@H](Cc1ccccc1)C(=O)O` [D-phenylalanine], for which the Km in the experiment with fDAO / PEG-fDAO was found to be 220 µM.

Regarding “D-amino acid oxidase isolated from Fusarium spp. (from UniProt P24552 23-361) (enzyme)”, the stoichiometry N in experiment [1] amounted to 4.

The term Km denotes the substrate concentration at which the rate is half of its maximum. The term stoichiometry N denotes a count of units in the complex or per binding partner.
